Results published in PubChem BioAssay (NCI).
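GI50 marks 50% less growth. At the TGI there is no net growth.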

Experiments:
Test in all cases: NCI tumour cell line growth inhibition, 384-well format
[1] = test system: 786-0 renal
[2] = test system: A498 renal
[3] = test system: A549 NSCLC
[4] = test system: ACHN renal
[5] = test system: BT-549 breast
[6] = test system: CAKI-1 renal
[7] = test system: CCRF-CEM leukemia
[8] = test system: COLO 205 colon
[9] = test system: DU-145 prostate
[10] = test system: EKVX NSCLC
[11] = test system: HCC-2998 colon
[12] = test system: HCT-116 colon
[13] = test system: HCT-15 colon
[14] = test system: HL-60(TB) leukemia
[15] = test system: HOP-62 NSCLC
[16] = test system: HOP-92 NSCLC
[17] = test system: HS 578T breast
[18] = test system: HT29 colon
[19] = test system: IGROV1 ovarian
[20] = test system: K-562 leukemia
[21] = test system: KM12 colon
[22] = test system: LOX IMVI melanoma
[23] = test system: M14 melanoma
[24] = test system: MALME-3M melanoma
[25] = test system: MCF7 breast
[26] = test system: MDA-MB-231 breast
[27] = test system: MDA-MB-435 melanoma
[28] = test system: MDA-MB-468 breast
[29] = test system: MOLT-4 leukemia
[30] = test system: NCI-H226 lung
[31] = test system: NCI-H23 lung
[32] = test system: NCI-H322M lung
[33] = test system: NCI-H460 NSCLC
[34] = test system: NCI-H522 lung
[35] = test system: NCI/ADR-RES ovarian
[36] = test system: OVCAR-3 ovarian
[37] = test system: OVCAR-4 ovarian
[38] = test system: OVCAR-8 ovarian
[39] = test system: PC-3 prostate
[40] = test system: RPMI-8226 leukemia
[41] = test system: RXF 393 renal
[42] = test system: SF-268 CNS
[43] = test system: SF-295 CNS
[44] = test system: SF-539 CNS
[45] = test system: SK-MEL-28 melanoma
[46] = test system: SK-MEL-5 melanoma
[47] = test system: SK-OV-3 ovarian
[48] = test system: SN12C renal
[49] = test system: SNB-19 CNS
[50] = test system: SNB-75 CNS
[51] = test system: SR leukemia
[52] = test system: SW-620 colon
[53] = test system: T-47D breast
[54] = test system: TK-10 renal
[55] = test system: U251 glioblastoma
[56] = test system: UACC-257 melanoma
[57] = test system: UACC-62 melanoma
[58] = test system: UO-31 renal

Cc1nnc(C[C@@H]2C=C(c3ccc(Cl)cc3)c3ccccc3-n3c(C)nnc32)o1 showed a GI50 [1] of 0.424 µM, a TGI [1] of 20.8 µM and a GI50 [2] of 0.783 µM. It also gave a TGI [2] of 16.3 µM, a GI50 [3] of 0.989 µM and a TGI [3] of 26.4 µM. For the same compound, the GI50 [4] was 1.96 µM, the TGI [4] was 56.8 µM and the GI50 [5] was 0.238 µM. For the same compound, the TGI [5] was 10 µM, the GI50 [6] was 0.0908 µM and the TGI [6] was 13.5 µM. It also gave a GI50 [7] of 0.357 µM, a TGI [7] of 12.5 µM and a GI50 [8] of 0.487 µM. The TGI [8] was 17.2 µM, the GI50 [9] was 5.28 µM and the TGI [9] was 43 µM. It also gave a GI50 [10] of 17.5 µM, a TGI [10] of 66.8 µM and a GI50 [11] of 0.285 µM. It also gave a TGI [11] of 2.46 µM, a GI50 [12] of 0.453 µM and a TGI [12] of 17.9 µM. It also gave a GI50 [13] of 0.283 µM, a TGI [13] of 10.4 µM and a GI50 [14] of 0.0346 µM. For the same compound, the TGI [14] was 0.144 µM, the GI50 [15] was 0.316 µM and the TGI [15] was 16.2 µM. It also gave a GI50 [16] of 0.595 µM, a TGI [16] of 45 µM and a GI50 [17] of 0.0882 µM. The TGI [17] was 1.4 µM, the GI50 [18] was 0.267 µM and the TGI [18] was 14.5 µM. For the same compound, the GI50 [19] was 0.631 µM, the TGI [19] was 15.2 µM and the GI50 [20] was 0.377 µM. For the same compound, the TGI [20] was 15.4 µM, the GI50 [21] was 1.69 µM and the TGI [21] was 20.7 µM. The GI50 [22] was 0.192 µM, the TGI [22] was 0.469 µM and the GI50 [23] was 0.935 µM. For the same compound, the TGI [23] was 38.8 µM, the GI50 [24] was 0.382 µM and the TGI [24] was 19.3 µM. It also gave a GI50 [25] of 0.087 µM, a TGI [25] of 21.4 µM and a GI50 [26] of 0.39 µM. The TGI [26] was greater than 100 µM, the GI50 [27] was 2.13 µM and the TGI [27] was 17.1 µM. For the same compound, the GI50 [28] was 1.5 µM, the TGI [28] was 16.4 µM and the GI50 [29] was 0.321 µM. The TGI [29] was 10.2 µM, the GI50 [30] was 0.294 µM and the TGI [30] was 17.4 µM. For the same compound, the GI50 [31] was 0.545 µM, the TGI [31] was 12.9 µM and the GI50 [32] was 0.492 µM. The TGI [32] was 37.6 µM, the GI50 [33] was 1.34 µM and the TGI [33] was 18.7 µM. It also gave a GI50 [34] of 0.25 µM, a TGI [34] of 2.95 µM and a GI50 [35] of 1.49 µM. For the same compound, the TGI [35] was 12.5 µM, the GI50 [36] was 0.379 µM and the TGI [36] was 12.9 µM. The GI50 [37] was 0.447 µM, the TGI [37] was 4.91 µM and the GI50 [38] was 0.246 µM. The TGI [38] was 3.1 µM, the GI50 [39] was 0.996 µM and the TGI [39] was 33.2 µM. The GI50 [40] was 0.059 µM, the TGI [40] was 0.351 µM and the GI50 [41] was 2.6 µM. The TGI [41] was 18.3 µM, the GI50 [42] was 3.22 µM and the TGI [42] was 24 µM. For the same compound, the GI50 [43] was 4.52 µM, the TGI [43] was 32.6 µM and the GI50 [44] was 1.65 µM. It also gave a TGI [44] of 24.5 µM, a GI50 [45] of 0.987 µM and a TGI [45] of 36.7 µM. The GI50 [46] was 0.695 µM, the TGI [46] was 17.7 µM and the GI50 [47] was 0.393 µM. It also gave a TGI [47] of 15.3 µM, a GI50 [48] of 12.5 µM and a TGI [48] of 41.1 µM. It also gave a GI50 [49] of 2.55 µM, a TGI [49] of 31.6 µM and a GI50 [50] of 0.965 µM. It also gave a TGI [50] greater than 100 µM, a GI50 [51] of 0.0585 µM and a TGI [51] of 0.371 µM. It also gave a GI50 [52] of 10.4 µM, a TGI [52] of 22.7 µM and a GI50 [53] of 4.96 µM. It also gave a TGI [53] of 57.9 µM, a GI50 [54] of 0.29 µM and a TGI [54] of 13.4 µM. For the same compound, the GI50 [55] was 3.89 µM, the TGI [55] was 25 µM and the GI50 [56] was 7.05 µM. It also gave a TGI [56] of 27.3 µM, a GI50 [57] of 0.076 µM and a TGI [57] of 12.2 µM. It also gave a GI50 [58] of 0.676 µM and a TGI [58] greater than 100 µM.

C=CC(=O)N[C@@H]1CN(c2nc(Nc3cn(C)nc3OC)c3ncn(C)c3n2)C[C@H]1F was tested, and the GI50 [1] was 37.3 µM, the TGI [1] was greater than 100 µM and the GI50 [2] was 27.6 µM. The TGI [2] was greater than 100 µM, the GI50 [3] was 21.4 µM and the TGI [3] was greater than 100 µM. The GI50 [4] was 1.9 µM, the TGI [4] was greater than 100 µM and the GI50 [5] was 25.4 µM. For the same compound, the TGI [5] was 70.9 µM, the GI50 [6] was 1.26 µM and the TGI [6] was greater than 100 µM. For the same compound, the GI50 [7] was 15.5 µM, the TGI [7] was 29.2 µM and the GI50 [8] was 23 µM. For the same compound, the TGI [8] was 53.8 µM, the GI50 [9] was 13.8 µM and the TGI [9] was 49.1 µM. For the same compound, the GI50 [10] was 0.338 µM, the TGI [10] was 24.9 µM and the GI50 [11] was 20.9 µM. It also gave a TGI [11] of 50 µM, a GI50 [12] of 33.4 µM and a TGI [12] greater than 100 µM. For the same compound, the GI50 [13] was 37.1 µM, the TGI [13] was greater than 100 µM and the GI50 [14] was 12.3 µM. The TGI [14] was 25.1 µM, the GI50 [15] was 31.9 µM and the TGI [15] was greater than 100 µM. The GI50 [16] was 23.4 µM, the TGI [16] was greater than 100 µM and the GI50 [17] was 21.5 µM. For the same compound, the TGI [17] was 55.9 µM, the GI50 [18] was 20.5 µM and the TGI [18] was 54.4 µM. The GI50 [19] was 3.27 µM, the TGI [19] was 30.3 µM and the GI50 [20] was 23.2 µM. The TGI [20] was 52 µM, the GI50 [21] was 39.2 µM and the TGI [21] was greater than 100 µM. The GI50 [22] was 34.6 µM, the TGI [22] was greater than 100 µM and the GI50 [23] was 16 µM. For the same compound, the TGI [23] was 41.8 µM, the GI50 [24] was 17.5 µM and the TGI [24] was 60.2 µM. The GI50 [25] was 18 µM, the TGI [25] was 73.7 µM and the GI50 [26] was 24.3 µM. For the same compound, the TGI [26] was 98.4 µM, the GI50 [27] was 17.2 µM and the TGI [27] was 34.3 µM. It also gave a GI50 [28] of 0.0291 µM, a TGI [28] of 0.114 µM and a GI50 [29] of 16.6 µM. It also gave a TGI [29] of 30.8 µM, a GI50 [30] of 20.2 µM and a TGI [30] of 62.2 µM. The GI50 [31] was 16.2 µM, the TGI [31] was 35.6 µM and the GI50 [32] was 0.0896 µM. It also gave a TGI [32] of 12.7 µM, a GI50 [33] of 21.9 µM and a TGI [33] of 42.1 µM. It also gave a GI50 [34] of 0.0389 µM, a TGI [34] of 15.7 µM and a GI50 [35] greater than 100 µM. For the same compound, the TGI [35] was greater than 100 µM, the GI50 [36] was 12.3 µM and the TGI [36] was 37.2 µM. It also gave a GI50 [37] of 49.8 µM, a TGI [37] greater than 100 µM and a GI50 [38] of 19.5 µM. The TGI [38] was 58.4 µM, the GI50 [39] was 39.4 µM and the TGI [39] was greater than 100 µM. The GI50 [40] was 18 µM, the TGI [40] was 36.7 µM and the GI50 [41] was 24.8 µM. For the same compound, the TGI [41] was 83.8 µM, the GI50 [42] was 29 µM and the TGI [42] was greater than 100 µM. It also gave a GI50 [43] of 41.5 µM, a TGI [43] greater than 100 µM and a GI50 [44] of 29.9 µM. For the same compound, the TGI [44] was 89.6 µM, the GI50 [45] was 28.5 µM and the TGI [45] was greater than 100 µM. For the same compound, the GI50 [46] was 19.2 µM, the TGI [46] was 49.4 µM and the GI50 [47] was 12.2 µM. For the same compound, the TGI [47] was greater than 100 µM, the GI50 [48] was 34.2 µM and the TGI [48] was greater than 100 µM. For the same compound, the GI50 [49] was 30 µM, the TGI [49] was greater than 100 µM and the GI50 [50] was 22.9 µM. It also gave a TGI [50] of 59.9 µM, a GI50 [51] of 1.52 µM and a TGI [51] of 3.2 µM. For the same compound, the GI50 [52] was 24.4 µM, the TGI [52] was 62.2 µM and the GI50 [53] was 20.7 µM. The TGI [53] was greater than 100 µM, the GI50 [54] was 0.319 µM and the TGI [54] was 39.1 µM. It also gave a GI50 [55] of 33.2 µM, a TGI [55] greater than 100 µM and a GI50 [56] of 33.6 µM. It also gave a TGI [56] greater than 100 µM, a GI50 [57] of 23.1 µM and a TGI [57] greater than 100 µM. For the same compound, the GI50 [58] was 26.3 µM and the TGI [58] was greater than 100 µM.
